Experimental data taken from the NIST ThermoML archive (doi:10.1021/je2000952).

Conditions: Liquid, Closed cell (Static) method

FCC(F)(F)F [1,1,1,2-tetrafluoroethane]
Conditions | vapor or sublimation pressure [kPa]
283.13 K | 414.4
293.14 K | 571.1
303.12 K | 769.2
313.11 K | 1014.9
323.17 K | 1318.5
333.16 K | 1681.1
343.16 K | 2117.3

C=C(F)C(F)(F)F [2,3,3,3-tetrafluoro-1-propene]
Conditions | vapor or sublimation pressure [kPa]
245.65 K | 110.3
248.15 K | 122.6
250.65 K | 136.1
253.15 K | 150.7
255.65 K | 166.4
258.15 K | 183.6
260.65 K | 201.9
263.15 K | 221.6
265.65 K | 242.5
268.15 K | 265.2
270.65 K | 289.7
273.15 K | 315.7
275.65 K | 343.3
278.15 K | 372.8
280.65 K | 404.1
283.15 K | 437.4
285.65 K | 472.9
288.15 K | 510.3
290.65 K | 549.9
293.16 K | 591.8
295.65 K | 636
298.16 K | 682.7
300.66 K | 731.9
303.16 K | 783.6
305.66 K | 838.1
308.16 K | 895.3
310.66 K | 955.5
313.16 K | 1018.5
315.66 K | 1084
318.16 K | 1153.4
320.66 K | 1225.8
323.16 K | 1301.6
325.65 K | 1381
328.15 K | 1463.9
330.66 K | 1550.6
333.16 K | 1641.1
335.66 K | 1735.7
338.16 K | 1833.9
340.66 K | 1936.6
343.15 K | 2043.7
